In US10428387B2, “Treating chronic myelogenous leukemia (CML)” (priority 2014, dated 2019):
Counter-ions that a name gives are not always drawn.

Columns and labels:
[1] = system: RAF/MEK/ERK signaling (phosphorylated ERK1/2); assay: Immunoblot analysis of RAF/MEK/ERK signaling in K562 cell lines; type: cell-based, human
Method: Cells were harvested and lysed with RIPA buffer (10×, 200 mM HEPES pH 6.8, 1400 mM NaCl, 25 mM MgCl2, 25 mM CaCl2, 10% NP40, and 5% sodium deoxycholate) plus phosphatase (Sigma) and protease inhibitors (Roche). […] The PKCη antibody (Santa Cruz Technology; C-15) was diluted in 5% skim milk at 1:150. The β-actin antibody (Sigma; AC-74) diluted in 5% BSA at 1:5000. Blots were developed with Pico/Femato super signal (Sigma) and visualized using autoradiography or a Bio-Rad ChemiDoc MP Imaging System.

[2] = system: mice with CML-like disease (Prkch KD); assay: Prkch knockdown mice with CML-like disease; type: in vivo, mouse; settings: IM from day 14
Method: Mice with CML-like disease were generated as previously described (22). Briefly, wild-type male C57BL/6 mice 6-8 weeks of age (Jackson Laboratory) were tail-vein injected with 5-fluorouracil (200 mg/kg; Sigma) for 4 days to enrich for slow-cycling hematopoietic stem cells. At day 5, bone marrow cells were harvested and pre-incubated overnight in the presence of IL-3, IL-6 and SCF (all from PeproTech) to increase infection efficiency. At days 6 and 7, bone marrow cells were infected with a BCR-ABL retrovirus by co-sedimentation method at 3,000 rpm for 90 min at room temperature. Four hours after the second round of retroviral infection, 0.5×10^6 bone marrow cells were injected into the tail vein of syngeneic recipient mice that had been lethally irradiated (twice at 550 R). Mice were randomly allocated to each group after bone marrow transplantation.

[3] = system: IMSG KD K562 cells; settings: representative IMSG KD K562 cell lines expressing PRKCH shRNA
[4] = system: phosphorylated ERK1/2 in CML progenitor and stem cells; assay: Intracellular phosphorylated-ERK1/2 analysis by FACS; type: cell-based, mouse; settings: 5 μM IM or 10 nM trametinib, 3 hours
Method: For intracellular phosphorylated-ERK1/2 analysis, bone marrow cells isolated from leukemic mice were treated with 5 μM IM or 10 nM trametinib for 3 hours, fixed in 4% paraformaldehyde (Electron Microscopy Sciences) for 10 min at 37° C., washed twice with wash buffer (0.05% BSA in 1×PBS), spun down, and resuspended in 100 μl wash buffer. Ice-cold methanol (900 μl) was added to the cells while gently vortexing to reach a final 90% for permeabilization. Samples were incubated on ice for 30 min, washed twice, and resuspended in 100 μl wash buffer. IgG control antibody (Cell signaling) was added (at 1:100 dilution) for 10 min at room temperature for blocking, followed by addition of 2 μl conjugated IgG control (Pacific Blue-conjugated IgG^XP Rabbit mAb, Cell Signaling) or phospho-ERK antibody (Pacific Blue-conjugated P-p44/42(T202/Y204)^XP Rabbit mAb, Cell Signaling). Samples were gently mixed and incubated at room temperature for 1 hour. Thirty minutes after the start of the incubation, a cocktail of primary antibodies for cell surface markers (described above) was added, incubated for a further 30 min, washed once with PBS, and incubated with the secondary antibody for 20 min on ice. Samples were then washed once with wash buffer prior to FACS analysis.

[5] = system: K562R cells; settings: K562R over-express the Src family kinase LYN; cited from earlier work

## Cc1ccc(NC(=O)c2ccc(CN3CCN(C)CC3)cc2)cc1Nc1nccc(-c2cccnc2)n1 [IM, imatinib mesylate]
[1]; K562/PRKCH cells
  phosphorylated MEK and ERK1/2 after IM treatment: maintained high levels
[1]; all IMSG KD K562 cell lines
  phosphorylation of ERK1/2 following IM treatment: sustained levels
[1]; control K562 cells
  phosphorylated-ERK1/2 levels after IM treatment: substantial decrease
[2]
  survival of IM-treated mice after knockdown of Prkch: markedly increased survival
[3]
  IM resistance after knockdown of PRKCH: abrogated the IM resistance
[4]
  phosphorylated ERK1/2 in CML progenitor cells: reduced levels of phosphorylated ERK1/2
[5]
  sensitivity of K562R cells: resistant
